Source: patent US10004701B2, “Methods and compositions for treating infection” (UNIVERSITY OF ROCHESTER, priority 2012, dated 2018)
Where a name gives a salt, the structure may show the parent alone. Read-outs that look alike come from different tables or passages of the source.

Columns and labels:
Assay in all cases: AK assay 384-well format, Prestwick library screening
E. cloacae = type: cell-based, Enterobacter cloacae; conditions: Enterobacter cloacae, 3 h
E. coli = type: cell-based, Escherichia coli; conditions: Escherichia coli, 3 h
P. aeruginosa = type: cell-based, Pseudomonas aeruginosa; conditions: Pseudomonas aeruginosa, 3 h
[1] = test system: S. aureus strain USA300-0114; type: cell-based, Staphylococcus aureus; conditions: Staphylococcus aureus, USA300, 3 h
E. faecium = type: cell-based, Enterococcus faecium; conditions: Enterococcus faecium, 3 h
[2] = test system: A. baumannii strain 98-37-09; type: cell-based, Acinetobacter baumannii; conditions: Acinetobacter baumannii, 983709, 3 h
K. pneumoniae = type: cell-based, Klebsiella pneumoniae; conditions: Klebsiella pneumoniae, 3 h
[3] = 50 μM final drug concentration, cutoff for positive-scoring molecules 3-fold increase, read-out: AK-based Prestwick Library Screening Results, E. cloacae (fold increase in extracellular AK activity)
[4] = 50 μM final drug concentration, cutoff for positive-scoring molecules 3-fold increase, read-out: AK-based Prestwick Library Screening Results, E. coli (fold increase in extracellular AK activity)
[5] = 50 μM final drug concentration, cutoff for positive-scoring molecules 3-fold increase, read-out: AK-based Prestwick Library Screening Results, P. aeruginosa (fold increase in extracellular AK activity)
[6] = 50 μM final drug concentration, cutoff for positive-scoring molecules 3-fold increase, read-out: AK-based Prestwick Library Screening Results, S. aureus (fold increase in extracellular AK activity)
[7] = 50 μM final drug concentration, cutoff for positive-scoring molecules 3-fold increase, read-out: AK-based Prestwick Library Screening Results, E. faecium (fold increase in extracellular AK activity)
[8] = 50 μM final drug concentration, cutoff for positive-scoring molecules 3-fold increase, read-out: AK-based Prestwick Library Screening Results, A. baumannii (fold increase in extracellular AK activity)
[9] = 50 μM final drug concentration, cutoff for positive-scoring molecules 3-fold increase, read-out: AK-based Prestwick Library Screening Results, K. pneumoniae (fold increase in extracellular AK activity)
[10] = 50 μM final drug concentration, 384-well format, cutoff for positive-scoring molecules 3-fold increase, read-out: AK-based Prestwick Library Screening Results, E. cloacae (increase in extracellular AK activity)
[11] = 50 μM final drug concentration, 384-well format, cutoff for positive-scoring molecules 3-fold increase, read-out: AK-based Prestwick Library Screening Results, E. coli (increase in extracellular AK activity)
[12] = 50 μM final drug concentration, 384-well format, cutoff for positive-scoring molecules 3-fold increase, read-out: AK-based Prestwick Library Screening Results, P. aeruginosa (increase in extracellular AK activity)
[13] = 50 μM final drug concentration, 384-well format, cutoff for positive-scoring molecules 3-fold increase, read-out: AK-based Prestwick Library Screening Results, S. aureus (increase in extracellular AK activity)
[14] = 50 μM final drug concentration, 384-well format, cutoff for positive-scoring molecules 3-fold increase, read-out: AK-based Prestwick Library Screening Results, E. faecium (increase in extracellular AK activity)
[15] = 50 μM final drug concentration, 384-well format, cutoff for positive-scoring molecules 3-fold increase, read-out: AK-based Prestwick Library Screening Results, A. baumannii (increase in extracellular AK activity)
[16] = 50 μM final drug concentration, 384-well format, cutoff for positive-scoring molecules 3-fold increase, read-out: AK-based Prestwick Library Screening Results, K. pneumoniae (increase in extracellular AK activity)

Work on `CN1C(C(=O)Nc2ccccn2)=C(O)c2ccccc2S1(=O)=O` [Piroxicam] yielded a fold induction at 50 µM (E. cloacae; planktonic E. cloacae, 50 μM final drug concentration, 384-well, cutoff for positive-scoring molecules 3-fold increase, read-out: AK-based Prestwick Library Screening Results: E. cloacae (increase in extracellular AK activity)) of 1.4, a fold induction at 50 µM (E. coli; planktonic E. coli, 50 μM final drug concentration, 384-well, cutoff for positive-scoring molecules 3-fold increase, read-out: AK-based Prestwick Library Screening Results: E. coli (increase in extracellular AK activity)) of 1.2 and a fold induction at 50 µM (P. aeruginosa; planktonic P. aeruginosa, 50 μM final drug concentration, 384-well, cutoff for positive-scoring molecules 3-fold increase, read-out: AK-based Prestwick Library Screening Results: P. aeruginosa (increase in extracellular AK activity)) of 1.2. It also gave a fold induction at 50 µM ([1]; planktonic S. aureus, 50 μM final drug concentration, 384-well, cutoff for positive-scoring molecules 3-fold increase, read-out: AK-based Prestwick Library Screening Results: S. aureus (increase in extracellular AK activity)) of 1.4, a fold induction at 50 µM (E. faecium; planktonic E. faecium, 50 μM final drug concentration, 384-well, cutoff for positive-scoring molecules 3-fold increase, read-out: AK-based Prestwick Library Screening Results: E. faecium (increase in extracellular AK activity)) of 1.1 and a fold induction at 50 µM ([2]; planktonic A. baumannii, 50 μM final drug concentration, 384-well, cutoff for positive-scoring molecules 3-fold increase, read-out: AK-based Prestwick Library Screening Results: A. baumannii (increase in extracellular AK activity)) of 1. It also gave a fold induction at 50 µM (K. pneumoniae; planktonic K. pneumoniae, 50 μM final drug concentration, 384-well, cutoff for positive-scoring molecules 3-fold increase, read-out: AK-based Prestwick Library Screening Results: K. pneumoniae (increase in extracellular AK activity)) of 1.

`CC(C)(C)C(=O)OCOC(=O)[C@@H]1N2C(=O)[C@@H](NC(=O)[C@H](N)c3ccccc3)[C@H]2SC1(C)C` [Pivampicillin] was tested, and the fold induction at 50 µM (E. cloacae; planktonic E. cloacae, 50 μM final drug concentration, […], read-out: AK-based Prestwick library screening result, E. cloacae (fold increase in extracellular AK activity)) was 1.2, the fold induction at 50 µM (E. coli; planktonic E. coli, 50 μM final drug concentration, […], read-out: AK-based Prestwick library screening result, E. coli (fold increase in extracellular AK activity)) was 1.5 and the fold induction at 50 µM (P. aeruginosa; planktonic P. aeruginosa, 50 μM final drug concentration, […], read-out: AK-based Prestwick library screening result, P. aeruginosa (fold increase in extracellular AK activity)) was 0.9. It also gave a fold induction at 50 µM ([1]; planktonic S. aureus, 50 μM final drug concentration, […], read-out: AK-based Prestwick library screening result, S. aureus (fold increase in extracellular AK activity)) of 0.4, a fold induction at 50 µM (E. faecium; planktonic E. faecium, 50 μM final drug concentration, […], read-out: AK-based Prestwick library screening result, E. faecium (fold increase in extracellular AK activity)) of 1.1 and a fold induction at 50 µM ([2]; planktonic A. baumannii, 50 μM final drug concentration, […], read-out: AK-based Prestwick library screening result, A. baumannii (fold increase in extracellular AK activity)) of 1.8. The fold induction at 50 µM (K. pneumoniae; planktonic K. pneumoniae, 50 μM final drug concentration, […], read-out: AK-based Prestwick library screening result, K. pneumoniae (fold increase in extracellular AK activity)) was 0.9.

Work on `CC(C)(C)C(=O)OCOC(=O)[C@@H]1N2C(=O)[C@@H](/N=C/N3CCCCCC3)[C@H]2SC1(C)C` [Pivmecillinam hydrochloride] yielded a fold induction at 50 µM (E. cloacae; [3]) of 0.8, a fold induction at 50 µM (E. coli; [4]) of 7.7 and a fold induction at 50 µM (P. aeruginosa; [5]) of 0.6. For the same compound, the fold induction at 50 µM [1, 6] was 0.6, the fold induction at 50 µM (E. faecium; [7]) was 0.9 and the fold induction at 50 µM [2, 8] was 1.1. The fold induction at 50 µM (K. pneumoniae; [9]) was 0.5.

Compound `COc1cc([C@@H]2c3cc4c(cc3[C@H](O)[C@H]3COC(=O)[C@H]23)OCO4)cc(OC)c1OC` [Podophyllotoxin] has a fold induction at 50 µM (E. cloacae; 50 μM final drug concentration, […], read-out: AK-based Prestwick Library Screening Results, E. cloacae (fold increase in extracellular AK activity)) of 1.3, a fold induction at 50 µM (E. coli; 50 μM final drug concentration, […], read-out: AK-based Prestwick Library Screening Results, E. coli (fold increase in extracellular AK activity)) of 1.2 and a fold induction at 50 µM (P. aeruginosa; 50 μM final drug concentration, […], read-out: AK-based Prestwick Library Screening Results, P. aeruginosa (fold increase in extracellular AK activity)) of 1.1. It also gave a fold induction at 50 µM ([1]; 50 μM final drug concentration, […], read-out: AK-based Prestwick Library Screening Results, S. aureus (fold increase in extracellular AK activity)) of 1, a fold induction at 50 µM (E. faecium; 50 μM final drug concentration, […], read-out: AK-based Prestwick Library Screening Results, E. faecium (fold increase in extracellular AK activity)) of 0.9 and a fold induction at 50 µM ([2]; 50 μM final drug concentration, […], read-out: AK-based Prestwick Library Screening Results, A. baumannii (fold increase in extracellular AK activity)) of 1.2. The fold induction at 50 µM (K. pneumoniae; 50 μM final drug concentration, […], read-out: AK-based Prestwick Library Screening Results, K. pneumoniae (fold increase in extracellular AK activity)) was 1.2.

Compound `CC(=O)Nc1ccc(OCC(O)CNC(C)C)cc1` (stereo not shown) [Practolol] has a fold induction at 50 µM (E. cloacae; planktonic E. cloacae, 50 μM final drug concentration, cutoff for positive-scoring molecules 3-fold increase, read-out: AK-based Prestwick Library Screening Results, E. cloacae (increase in extracellular AK activity)) of 0.8, a fold induction at 50 µM (E. coli; planktonic E. coli, 50 μM final drug concentration, cutoff for positive-scoring molecules 3-fold increase, read-out: AK-based Prestwick Library Screening Results, E. coli (increase in extracellular AK activity)) of 0.7 and a fold induction at 50 µM (P. aeruginosa; planktonic P. aeruginosa, 50 μM final drug concentration, cutoff for positive-scoring molecules 3-fold increase, read-out: AK-based Prestwick Library Screening Results, P. aeruginosa (increase in extracellular AK activity)) of 0.6. The fold induction at 50 µM ([1]; planktonic S. aureus, 50 μM final drug concentration, cutoff for positive-scoring molecules 3-fold increase, read-out: AK-based Prestwick Library Screening Results, S. aureus (increase in extracellular AK activity)) was 0.6, the fold induction at 50 µM (E. faecium; planktonic E. faecium, 50 μM final drug concentration, cutoff for positive-scoring molecules 3-fold increase, read-out: AK-based Prestwick Library Screening Results, E. faecium (increase in extracellular AK activity)) was 0.9 and the fold induction at 50 µM ([2]; planktonic A. baumannii, 50 μM final drug concentration, cutoff for positive-scoring molecules 3-fold increase, read-out: AK-based Prestwick Library Screening Results, A. baumannii (increase in extracellular AK activity)) was 0.7. The fold induction at 50 µM (K. pneumoniae; planktonic K. pneumoniae, 50 μM final drug concentration, cutoff for positive-scoring molecules 3-fold increase, read-out: AK-based Prestwick Library Screening Results, K. pneumoniae (increase in extracellular AK activity)) was 0.5.

Compound `C[n+]1ccccc1/C=N/O` [Pralidoxime chloride] has a fold induction at 50 µM (E. cloacae; read-out: AK-based Prestwick Library Screening Results, E. cloacae (fold increase in extracellular AK activity)) of 1.5, a fold induction at 50 µM (E. coli; read-out: AK-based Prestwick Library Screening Results, E. coli (fold increase in extracellular AK activity)) of 1.3 and a fold induction at 50 µM (P. aeruginosa; read-out: AK-based Prestwick Library Screening Results, P. aeruginosa (fold increase in extracellular AK activity)) of 1.2. The fold induction at 50 µM ([1]; read-out: AK-based Prestwick Library Screening Results, S. aureus (fold increase in extracellular AK activity)) was 1.3, the fold induction at 50 µM (E. faecium; read-out: AK-based Prestwick Library Screening Results, E. faecium (fold increase in extracellular AK activity)) was 1 and the fold induction at 50 µM ([2]; read-out: AK-based Prestwick Library Screening Results, A. baumannii (fold increase in extracellular AK activity)) was 1.4. The fold induction at 50 µM (K. pneumoniae; read-out: AK-based Prestwick Library Screening Results, K. pneumoniae (fold increase in extracellular AK activity)) was 1.

With `CCCCOc1ccc(OCCCN2CCOCC2)cc1` [Pramoxine hydrochloride] the fold induction at 50 µM (E. cloacae; [3]) was 1.5, the fold induction at 50 µM (E. coli; [4]) was 1.1 and the fold induction at 50 µM (P. aeruginosa; [5]) was 1.2. The fold induction at 50 µM [1, 6] was 1.3, the fold induction at 50 µM (E. faecium; [7]) was 1 and the fold induction at 50 µM [2, 8] was 1.1. For the same compound, the fold induction at 50 µM (K. pneumoniae; [9]) was 1.1.

`O=C(C1CCCCC1)N1CC(=O)N2CCc3ccccc3C2C1` (stereo not shown) [Praziquantel] was tested, and the fold induction at 50 µM (E. cloacae; [10]) was 0.7, the fold induction at 50 µM (E. coli; [11]) was 0.9 and the fold induction at 50 µM (P. aeruginosa; [12]) was 0.6. The fold induction at 50 µM [1, 13] was 0.8, the fold induction at 50 µM (E. faecium; [14]) was 1 and the fold induction at 50 µM [2, 15] was 0.7. The fold induction at 50 µM (K. pneumoniae; [16]) was 0.6.

For `CCOC(=O)O[C@]1(C(=O)COC(=O)CC)CC[C@H]2[C@@H]3CCC4=CC(=O)C=C[C@]4(C)[C@H]3[C@@H](O)C[C@@]21C` [Prednicarbate], the fold induction at 50 µM (E. cloacae; [3]) was 0.3, the fold induction at 50 µM (E. coli; [4]) was 0.4 and the fold induction at 50 µM (P. aeruginosa; [5]) was 0.4. It also gave a fold induction at 50 µM [1, 6] of 0.4, a fold induction at 50 µM (E. faecium; [7]) of 0.9 and a fold induction at 50 µM [2, 8] of 0.4. The fold induction at 50 µM (K. pneumoniae; [9]) was 0.5.

For `C[C@]12C=CC(=O)C=C1CC[C@@H]1[C@@H]2[C@@H](O)C[C@@]2(C)[C@H]1CC[C@]2(O)C(=O)CO` [Prednisolone], the fold induction at 50 µM (E. cloacae; [10]) was 1.3, the fold induction at 50 µM (E. coli; [11]) was 1 and the fold induction at 50 µM (P. aeruginosa; [12]) was 1. It also gave a fold induction at 50 µM [1, 13] of 0.8, a fold induction at 50 µM (E. faecium; [14]) of 1 and a fold induction at 50 µM [2, 15] of 1. The fold induction at 50 µM (K. pneumoniae; [16]) was 0.7.
